Consider eight molecules from PMC4550849 (Scientific Reports, 2015).

In series [1] the test system is RAW264.7 cells treated with anthrax lethal toxin (PA + LF).
Another series has as its system Ebola virus (Kikwit). The experiment in a line: microbe, parasite or virus in culture. It counts as cell-based. To be noted: Zaire ebolavirus, HeLa.
The target of series [2] is purified human cathepsin B (Homo sapiens, UniProt P07858). It counts as biochemical. As to conditions: 4, 8, 16, 33, or 66 μM; without pre-incubation; pH 5.8.
Series [3] in a line: in vitro. To be noted: human.
The next series concerns Ebola virus (EBOV). The experiment in a line: microbe, parasite or virus in culture. It counts as cell-based. As to conditions: Zaire ebolavirus, HFF-1, 48 h.
The nature of series [4]: in vitro. As to conditions: human. The source holds these as a separate data set.
Series [5] deals with host lysosomal cathepsin B. To be noted: cited from earlier work.
Another series concerns Ebola virus. As to conditions: cited from earlier work.
Series [6] deals with C32 cells treated with diphtheria toxin. It counts as cell-based, human.
Another series has as its system endosomal acidification. As to conditions: cited from earlier work.
For a further series, the system named is caspase-1. Type of series: cell-based, mouse.
Series [7] is described as follows: in vitro. As to conditions: rhesus monkey.
The subject of another series is HeLa cells. As to conditions: human.
Series [8] can be described thus: in vitro. To be noted: hamster.
The subject of series [9] is Plasmodium falciparum phosphoethanolamine methyltransferase. To be noted: cited from earlier work.
For series [10], the system named is RAW264.7 cells treated with Pseudomonas aeruginosa Exotoxin A. The series can be described thus: cells. To be noted: Mus musculus, RAW264.7, 6 h. Type of series: cell-based.
In the next series the target is cathepsin B (Homo sapiens, UniProt P07858). Type of series: binding.
Series [11] concerns RAW264.7 cells treated with Clostridium difficile toxin B. The experiment in a line: cells. It counts as cell-based. To be noted: Mus musculus, RAW264.7, 6 h.
In the next series the target is LF (Bacillus anthracis, UniProt P15917). Type of series: biochemical.
Series [12] concerns anthrax toxin (LF + PA) lethality. On the set-up: species or system Sprague-Dawley rats. To be noted: rat, in vivo.
The subject of series [13] is Human Cytomegalovirus (CMV, Strain AD169). The series can be described thus: microbe, parasite or virus in culture. It counts as cell-based. To be noted: Human betaherpesvirus 5, AD169, HFF, 336 h.
Series [14] relates to RAW264.7 cells treated with Cholera toxin. The experiment in a line: cells. It counts as cell-based. As to conditions: Mus musculus, RAW264.7, 6 h.
For series [15], the system named is Herpes Simplex Virus 1 (HSV-1, Strain E-377). The experiment in a line: microbe, parasite or virus in culture. To be noted: Human alphaherpesvirus 1, HFF, 72 h. Type of series: cell-based.
In the next series the test system is MEK-2. It counts as cell-based, mouse.
Series [16] deals with acidic vesicles in RAW264.7 cells. Type of series: cell-based, mouse. As to conditions: AQ 1 h, 500 ng/ml PA 1 h.
For series [17], the system named is PA83 binding to RAW264.7 cells. It counts as cell-based, mouse.
Series [18] relates to Respiratory syncytial virus (RSV): Strain A-2. The experiment in a line: microbe, parasite or virus in culture. It counts as cell-based. As to conditions: human respiratory syncytial virus, HEp-2.
For series [19], the system named is Venezuelan equine encephalitis virus (VEEV, Strain TC-83). The experiment in a line: microbe, parasite or virus in culture. It counts as cell-based.
In a further series the test system is Poliovirus: WM3. The series can be described thus: microbe, parasite or virus in culture. It counts as cell-based, Poliovirus 3. To be noted: Enterovirus C, LLC-MK2.
The test system of a further series is Chikungunya (CHIV). The series can be described thus: microbe, parasite or virus in culture. Type of series: cell-based.
The test system of the next series is SARS CoV Strain Urbani. The experiment in a line: microbe, parasite or virus in culture. It counts as cell-based, SARS coronavirus. To be noted: Severe acute respiratory syndrome coronavirus, Vero 76.
In a further series the test system is Rabies (Strain Flury). The experiment in a line: microbe, parasite or virus in culture. Type of series: cell-based. To be noted: Lyssavirus rabies, BHK-21, 120 h.
The test system of another series is Junin (JUNV). The experiment in a line: microbe, parasite or virus in culture. It counts as cell-based, Junin virus. To be noted: Mammarenavirus juninense.
Series [20] in a line: in vitro. As to conditions: African green monkey.
The next series relates to Ebola. To be noted: in vivo; cited from earlier work.
The subject of series [21] is RAW264.7 cells treated with PA + FP59. It counts as cell-based, mouse.
The test system of series [22] is RAW264.7 cells treated with anthrax lethal toxin (PA + LF). The series can be described thus: cells. To be noted: Mus musculus, RAW264.7, read-out: EC50, reduction of anthrax toxin-mediated cytotoxicity.
The conditions of series [23]: human, in vivo, cited from earlier work.

By EC50 is commonly meant the concentration that produces a half-maximal response.

Chain of LF (P15917 34-809 limits assumed): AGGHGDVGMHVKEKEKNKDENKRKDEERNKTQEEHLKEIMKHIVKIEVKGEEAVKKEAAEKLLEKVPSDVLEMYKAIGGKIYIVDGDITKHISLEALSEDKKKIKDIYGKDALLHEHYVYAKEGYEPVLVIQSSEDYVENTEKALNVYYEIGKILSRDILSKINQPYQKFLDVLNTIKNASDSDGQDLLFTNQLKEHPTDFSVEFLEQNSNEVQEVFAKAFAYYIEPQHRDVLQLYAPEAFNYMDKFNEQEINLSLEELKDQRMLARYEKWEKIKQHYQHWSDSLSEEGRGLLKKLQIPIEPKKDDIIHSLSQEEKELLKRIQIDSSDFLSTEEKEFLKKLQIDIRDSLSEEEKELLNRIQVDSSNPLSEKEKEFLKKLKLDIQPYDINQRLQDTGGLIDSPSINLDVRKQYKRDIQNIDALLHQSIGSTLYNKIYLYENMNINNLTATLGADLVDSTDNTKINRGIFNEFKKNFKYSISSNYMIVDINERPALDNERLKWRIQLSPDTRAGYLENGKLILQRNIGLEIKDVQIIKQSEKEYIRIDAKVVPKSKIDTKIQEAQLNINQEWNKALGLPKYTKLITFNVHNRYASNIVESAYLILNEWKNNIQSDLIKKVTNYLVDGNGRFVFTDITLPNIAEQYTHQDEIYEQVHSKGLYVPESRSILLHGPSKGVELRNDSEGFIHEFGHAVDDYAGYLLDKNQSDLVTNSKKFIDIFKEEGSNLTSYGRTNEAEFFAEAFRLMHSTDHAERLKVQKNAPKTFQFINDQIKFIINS

As for `C=C[C@H]1C[N@@]2CC[C@H]1C[C@@H]2[C@@H](O)c1ccnc2ccc(OC)cc12` [Quinidine], the “protection of host cells against anthrax toxin killing (cell viability, MTT)” value (“protection of host cells” below) in series [1] is “none”.

Turning to `CCNCCCC(C)Nc1ccnc2cc(Cl)ccc12` (centres unmarked) [DECQ, Desethyl-Chloroquine], the EC50 is 7.3 µM with Ebola virus (Kikwit) (48 h) and 3.2 µM in the series with Ebola virus (EBOV). Further, the “inhibition of purified human cathepsin B activity” value in series [2] was “weaker inhibitors”. For the same molecule, the CC50 in “in vitro [3]” is 70 µM; in “in vitro [4]” (CC50) it was 100 µM.

With `C=C[C@H]1C[N@@]2CC[C@H]1C[C@@H]2[C@@H](O)c1ccnc2ccccc12` [Cinchonine], in [1], the “protection of host cells” value is “none”.

Take CA-074: in series [5], the “accumulation of PA pores in late endosomes” value is reported as “elevated accumulation”, the “cellular sensitivity to LF-PA” value is recorded as “reduction of cellular sensitivity” and the “release of LF from the late endosomes into the cytoplasm” value is recorded as “inability of LF to be released”.

With `CCN(CC)CCCC(C)Nc1ccnc2cc(Cl)ccc12` (centres unmarked) [CQ, Chloroquine], in the series with Ebola virus, the “Ebola virus pathogenicity in cells” value is listed as “inhibit Ebola virus pathogenicity in cells”. For the same molecule, the EC50 with Ebola virus (Kikwit) (48 h) was found to be 4.8 µM; in the series on Ebola virus (EBOV), 2.5 µM. The “inhibition of purified human cathepsin B activity” value in [2] is recorded as “weaker inhibitors”. Also, the “inhibition of diphtheria toxin cell killing (multiplex hit)” value in series [6] is recorded as “inhibited”. Moreover, the CC50 is 70 µM in “in vitro [3]” and 100 µM in the series “in vitro [4]” (CC50). The endosomal acidification result in the series on endosomal acidification is listed as “prevent endosomal acidification”.

On to `CCN(CC)Cc1cc(Nc2ccnc3cc(Cl)ccc23)ccc1O` [AQ, Amodiaquine], for which, in the series with caspase-1, the “active caspase-1 after LF-PA treatment (FLICA)” value was “not detected”. Besides, the CC50 is above 100 µM in the series “in vitro [7]”; above 50 µM in the series with HeLa cells; above 10 µM in “in vitro [8]”; 32 µM in the series “in vitro [20]”; 50 µM in “in vitro [4]” (CC50). Also, in the series on Ebola virus, the “Ebola virus pathogenicity in cells” value is on record as “inhibit Ebola virus pathogenicity in cells”. The “protection of host cells” value in series [1] is “completely protect”. For the same molecule, the “sensitivity of host cells to PA83 + LF and PA63 + LF” value in [1] is reported as “equally reduces sensitivity”. The “inhibition of Plasmodium falciparum phosphoethanolamine methyltransferase” value in series [9] is “inhibits”. The EC50 in the series with Ebola virus (Kikwit) is 2.4 µM; with Ebola virus (Kikwit) (24 h), 2 µM; in the series on Ebola virus (Kikwit) (48 h), 4 µM; in series [10], above 66.7 µM; in series [11], 4.6 µM; in series [13], above 60 µM. Further, the EC50 was above 66.7 µM in [14]; above 60 µM in series [15]; 32 µM in series [18]; 3.2 µM in series [19]; above 100 µM with Poliovirus: WM3; 18.4 µM with Chikungunya (CHIV). Also, the EC50 was 2.6 µM in the series on Ebola virus (EBOV), 2.4 µM with SARS CoV Strain Urbani, 5.7 µM with Rabies (Strain Flury) and 16.9 µM with Junin (JUNV). Moreover, in [2], the “inhibition of purified human cathepsin B activity” value is “directly inhibit cathepsin B activity in a dose dependent manner”. The “binding to cathepsin B (STD difference spectrum)” value on cathepsin B (2 mM AQ, 20 μM cathepsin B (100:1)) is listed as “binding to the enzyme”. Also, the “STD effect, atom H4” value at cathepsin B (relative to H4 atom (100%)) is 100%. Moreover, the “STD effect, atom H5” value at cathepsin B (relative to H4 atom (100%)) turned out to be 97%. Moreover, the “proteolytic activity of LF on MAPKK peptide (emission at 523 nm)” value on LF is recorded as “does not block”. In addition, in series [6], the “inhibition of diphtheria toxin cell killing (multiplex hit)” value is reported as “inhibited”. Moreover, the “rats saved after lethal anthrax toxin challenge” value in series [12] came out at 40%. In series [12], the “survival after lethal anthrax toxin challenge” value is “all survived”. For the same molecule, in the series with MEK-2, the “LF-PA-mediated cleavage of MEK2” value is “completely prevented”. In series [16], the “cell-associated Lysosensor fluorescence (acidic organelles)” value was “markedly decreased”. For the same molecule, in series [17], the “binding of PA83 to cells” value is “did not block”. Moreover, the “proteolytic processing of PA to generate PA63” value in series [17] is recorded as “did not block”. For the same molecule, in the series on Ebola, the “reduction of Ebola mortality risk” value is reported as 31%. Further, in series [21], the “sensitivity of cells to PA + FP59” value was “less sensitive”.

Regarding `COc1cc(NC(C)CCCN)c2ncccc2c1` (centres unmarked) [Primaquine], the “protection of host cells” value in series [1] is listed as “none”.

For the molecule `CCNCc1cc(Nc2ccnc3cc(Cl)ccc23)ccc1O` [DEAQ, Desethyl-Amodiaquine], the EC50 in the series with Ebola virus (Kikwit) (24 h) is 2 µM; with Ebola virus (Kikwit) (48 h), 4 µM; in [22] it was 5 µM; with Chikungunya (CHIV), 17.3 µM; with Ebola virus (EBOV), 2.1 µM; in the series on Junin (JUNV), 13.8 µM. Besides, in series [2], the “inhibition of purified human cathepsin B activity” value is recorded as “directly inhibit cathepsin B activity in a dose dependent manner”. In series [23] (po), the terminal half-life is 220 to 432 h. Moreover, the “Cmax (maximal amounts of drug in the blood after oral administration)” value in series [23] was “low μM range”. The CC50 in “in vitro [4]” (CC50) is 50 µM; in “in vitro [4]” (CC50, 24 h), above 50 µM; in the series “in vitro [4]” (CC50, 48 h), above 50 µM.
